From the supplement of paper PMC10307832

Key:
Assay in all cases: relative viability (nuclei count vs DMSO), 5 days (fraction); higher = more cells survive
Elesclomol + Tozasertib = compound: CN(NC(=O)CC(=O)NN(C)C(=S)c1ccccc1)C(=S)c1ccccc1 [Elesclomol] + Cc1cc(Nc2cc(N3CCN(C)CC3)nc(Sc3ccc(NC(=O)C4CC4)cc3)n2)n[nH]1 [Tozasertib] (partner 0.1 µM)
Summary of the method: (§1)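 Relative viability divides the nuclei count in treated wells by that in vehicle wells. Lung cancer cell lines were seeded in 1536-well plates, dosed by pin tool the next day, and fixed and stained after 5 days in one step with final 0.05% Triton X-100, 1% formaldehyde and 1 ug/ml Hoechst. Dosing was a single drug or a fixed anchor-drug dose plus five library-drug doses (not always all listed) in √10 steps, and values are medians of duplicate plates imaged at 4×.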

Elesclomol + Pictilisib = compound: CN(NC(=O)CC(=O)NN(C)C(=S)c1ccccc1)C(=S)c1ccccc1 [Elesclomol] + CS(=O)(=O)N1CCN(Cc2cc3nc(-c4cccc5[nH]ncc45)nc(N4CCOCC4)c3s2)CC1 [Pictilisib] (partner 1 µM)
Summary of the method: as §1

Elesclomol + Phenformin = compound: CN(NC(=O)CC(=O)NN(C)C(=S)c1ccccc1)C(=S)c1ccccc1 [Elesclomol] + N=C(N)NC(=N)NCCc1ccccc1 [Phenformin] (partner 250 µM)
Summary of the method: as §1

Elesclomol + Alpelisib = compound: CN(NC(=O)CC(=O)NN(C)C(=S)c1ccccc1)C(=S)c1ccccc1 [Elesclomol] + Cc1nc(NC(=O)N2CCC[C@H]2C(N)=O)sc1-c1ccnc(C(C)(C)C(F)(F)F)c1 [Alpelisib] (partner 2 µM)
Summary of the method: as §1

Elesclomol + Vorinostat = compound: CN(NC(=O)CC(=O)NN(C)C(=S)c1ccccc1)C(=S)c1ccccc1 [Elesclomol] + O=C(CCCCCCC(=O)Nc1ccccc1)NO [Vorinostat] (partner 1 µM)
Summary of the method: as §1

Row | Cell Line | relative viability (Elesclomol + Tozasertib; first compound 0.003162 µM) | relative viability (Elesclomol + Tozasertib; first compound 0.01 µM) | relative viability (Elesclomol + Tozasertib; first compound 0.03162 µM) | relative viability (Elesclomol + Tozasertib; first compound 0.1 µM) | relative viability (Elesclomol + Pictilisib; first compound 0.003162 µM) | relative viability (Elesclomol + Pictilisib; first compound 0.01 µM) | relative viability (Elesclomol + Pictilisib; first compound 0.03162 µM) | relative viability (Elesclomol + Pictilisib; first compound 0.1 µM) | relative viability (Elesclomol + Phenformin; first compound 0.003162 µM) | relative viability (Elesclomol + Phenformin; first compound 0.01 µM) | relative viability (Elesclomol + Phenformin; first compound 0.03162 µM) | relative viability (Elesclomol + Phenformin; first compound 0.1 µM) | relative viability (Elesclomol + Alpelisib; first compound 0.003162 µM) | relative viability (Elesclomol + Alpelisib; first compound 0.01 µM) | relative viability (Elesclomol + Alpelisib; first compound 0.03162 µM) | relative viability (Elesclomol + Alpelisib; first compound 0.1 µM) | relative viability (Elesclomol + Vorinostat; first compound 0.003162 µM) | relative viability (Elesclomol + Vorinostat; first compound 0.01 µM) | relative viability (Elesclomol + Vorinostat; first compound 0.03162 µM) | relative viability (Elesclomol + Vorinostat; first compound 0.1 µM)
1 | HCC-366 | 0.158 | 0.0679 | 0.0952 | 0.0212 | 0.135 | 0.123 | 0.211 | 0.0502 | 0.611 | 0.562 | 0.436 | 0.0349 | 0.437 | 0.491 | 0.359 | 0.0118 | 0.371 | 0.228 | 0.173 | 0.0207
2 | HCC-827 | 0.432 | 0.4 | 0.421 | 0.355 | 1.03 | 0.988 | 1.04 | 0.811 | 0.382 | 0.402 | 0.371 | 0.393 | 0.98 | 1.01 | 0.975 | 0.657 | 0.759 | 0.777 | 0.742 | 0.767
3 | HOP-62 | 0.359 | 0.305 | 0.277 | 0.141 | 0.694 | 0.269 | 0.582 | 0.239 | 0.629 | 0.508 | 0.353 | 0.176 | 1.05 | 0.712 | 0.797 | 0.113 | 0.659 | 0.469 | 0.477 | 0.136
4 | IA-LM | – | – | – | – | 0.275 | 0.126 | 0.052 | 0.0237 | – | – | – | – | 0.789 | 0.164 | 0.076 | 0.027 | 0.863 | 0.858 | 0.999 | 0.847
5 | LC-2-ad | 0.394 | 0.274 | 0.277 | 0.231 | 0.419 | 0.195 | 0.102 | 0.0937 | 0.514 | 0.271 | 0.269 | 0.331 | 0.85 | 0.495 | 0.111 | 0.116 | 0.642 | 0.608 | 0.24 | 0.169
6 | LCLC-97TM1 | 0.196 | 0.148 | 0.178 | 0.153 | 0.173 | 0.118 | 0.115 | 0.0666 | 0.369 | 0.168 | 0.422 | 0.387 | 0.216 | 0.211 | 0.167 | 0.104 | 0.724 | 0.283 | 0.707 | 0.0661
7 | LCLC-103H | 0.477 | 0.377 | 0.426 | 0.202 | 0.628 | 0.471 | 0.736 | 0.457 | 0.355 | 0.275 | 0.384 | 0.292 | 1.17 | 0.883 | 1.02 | 0.955 | 0.82 | 0.496 | 0.877 | 0.568
8 | LK-2 | 0.172 | 0.166 | 0.153 | 0.12 | 0.418 | 0.177 | 0.149 | 0.117 | 0.438 | 0.389 | 0.353 | 0.141 | 0.843 | 0.254 | 0.137 | 0.107 | 0.395 | 0.232 | 0.167 | 0.121
9 | LOU-NH91 | 0.631 | 0.575 | 0.581 | 0.568 | 0.447 | 0.511 | 0.45 | 0.424 | 0.754 | 0.571 | 0.419 | 0.439 | 0.717 | 0.643 | 0.513 | 0.498 | 1.02 | 0.826 | 0.782 | 0.66
10 | LU99A | 0.305 | 0.245 | 0.274 | 0.165 | 0.316 | – | 0.325 | 0.137 | 0.804 | 0.561 | 0.901 | 0.219 | 0.479 | – | 0.538 | 0.095 | 0.438 | 0.459 | 0.429 | 0.162
11 | LXF-289 | 0.193 | 0.17 | 0.188 | 0.174 | 0.781 | 0.709 | 0.749 | 0.501 | 0.516 | 0.406 | 0.487 | 0.467 | 1.05 | 0.977 | 0.979 | 0.686 | 0.79 | 0.779 | 0.706 | 0.483
12 | NCI-H23 | 0.349 | 0.311 | 0.36 | 0.128 | 0.536 | – | 0.366 | 0.147 | 0.822 | 0.671 | 0.77 | 0.506 | 0.662 | – | 0.491 | 0.122 | 0.559 | 0.385 | 0.318 | 0.0919
13 | NCI-H322M | 0.335 | 0.275 | 0.186 | 0.122 | 0.478 | – | 0.519 | 0.382 | 0.769 | 0.32 | 0.47 | 0.0999 | 0.933 | – | 0.645 | 0.173 | 0.72 | 0.42 | 0.289 | 0.191
14 | NCI-H1563 | – | – | – | – | 0.656 | 0.582 | 0.587 | 0.486 | 0.589 | 0.569 | 0.516 | 0.479 | 0.687 | 0.613 | 0.537 | 0.527 | – | – | – | –
15 | NCI-H1650 | 0.227 | 0.168 | 0.139 | 0.136 | 0.185 | 0.177 | 0.18 | 0.15 | 0.315 | 0.211 | 0.173 | 0.133 | – | – | – | – | 0.3 | 0.22 | 0.146 | 0.11
16 | NCI-H1703 | – | – | – | – | 0.198 | 0.106 | 0.133 | 0.128 | – | – | – | – | 0.225 | 0.135 | 0.0986 | 0.0874 | – | – | – | –
17 | NCI-H1792 | – | – | – | – | 0.262 | 0.171 | 0.3 | 0.357 | 0.342 | – | 0.339 | 0.118 | 0.621 | 0.505 | 0.718 | 0.858 | – | – | – | –
18 | NCI-H2342 | 0.466 | 0.476 | 0.332 | 0.324 | – | – | – | – | 0.482 | 0.596 | 0.355 | 0.292 | – | – | – | – | 0.732 | 0.8 | 0.757 | 0.771
19 | SW 900 | 0.534 | 0.3 | 0.121 | 0.146 | – | – | – | – | 0.521 | 0.337 | 0.178 | 0.0792 | – | – | – | – | 0.522 | 0.345 | 0.234 | 0.111
